Reference: patent US20020155518A1, “Method of detecting compounds that control fungal diseases via effects on sporulation” (priority 2000, published 2002)

Legend:
[1] = tested on: Wheat Powdery Mildew (Blumeria [Erysiphe] graminis f.sp. tritici); settings: in vivo; further: key: '+++' =high control; '++' =moderate control; '+' =low control; '0'=no control
[2] = tested on: Rice Blast (Magnaporthe grisea); type: in vivo; settings: foliar spray before inoculation, vs untreated inoculated controls
[3] = tested on: Apple Scab (Venturia inaequalis); assay: Protectant foliar spray test against apple scab; type: in vivo; further: key: '+++' =high control; '++' =moderate control; '+' =low control; '0'=no control
[4] = tested on: Leptosphaeria (Septoria) nodorum; assay: Protectant foliar spray test against wheat L. nodorum blotch; type: in vivo; further: key: '+++' =high control; '++' =moderate control; '+' =low control; '0'=no control
[5] = apple seedlings, foliar spray before inoculation, vs untreated inoculated controls
[6] = wheat, foliar spray before inoculation, vs untreated inoculated controls

Structure (SMILES) | Level of Plant Disease Control, Wheat Powdery Mildew [1] | Level of Plant Disease Control, Rice Blast [2] | Level of Plant Disease Control, Apple Scab [3, 5] | Level of Plant Disease Control, Wheat L. nodorum [4, 6] | Level of Plant Disease Control, Apple Scab ([3]; in vivo) | Level of Plant Disease Control, Wheat L. nodorum ([4]; in vivo)
COc1cc(C)c(C(=O)c2c(OC)ccc(Br)c2C)c(OCc2ccccc2C)c1OC [AA, (3-bromo-6-methoxy-2-methyiphenyl)[3,4-dimethoxy-6-methyl-2-[(2-methylphenyl)methoxy]phenyl]methanone] | +++ | 0 | 0 | 0 |  | 
CCCCOc1c(OC)cc(C)c(C(=O)c2c(Cl)cccc2Cl)c1OCCCC [B, (2,3-dibutoxy-4-methoxy-6-methylphenyl)(2,6-dichlorophenyl)methanone] | +++ | 0 | 0 | 0 |  | 
CCCOc1c(OC)cc(C)c(C(=O)c2c(OC)ccc(Br)c2C)c1OCc1ccc(C(C)(C)C)cc1 [BB, (3-bromo-6-methoxy-2-methylphenyl)[4-methoxy-6-methyl-3-propoxy-2-[[4-(1,1-dimethylethyl)phenyl]methoxy]phenyl]methanone] | +++ | 0 | 0 | 0 |  | 
COc1cc(C)c(C(=O)c2c(OC)ccc(Br)c2C)c(OCc2ccccc2F)c1OC [C, (3-bromo-6-methoxy-2-methylphenyl)[3,4-dimethoxy-6-methyl-2-[(2-fluorophenyl)methoxy]phenyl]methanone] | +++ | ++ | 0 |  |  | 
CCCOc1c(OC)cc(C)c(C(=O)c2c(OC)ccc(Br)c2C)c1OCc1ccc(C(F)(F)F)cc1 [CC, (3-bromo-6-methoxy-2-methylphenyl)[4-methoxy-6-methyl-3-propoxy-2-[[4-(trifluoromethyl)phenyl]methoxy]phenyl]methanone] | +++ | 0 | 0 | 0 |  | 
COc1cc(C)c(C(=O)c2c(C)cccc2C)c(OCc2cccc(C)c2)c1OC [Compound E, [3,4-dimethoxy-6-methyl-2-[(3-methylphenyl)methoxy]phenyl](2,6-dimethylphenyl)methanone] | +++ |  |  |  |  | 
COc1cc(C)c(C(=O)c2c(O)ccc(Cl)c2C)c(OC)c1OC [Compound N, (3-chloro-6-hydroxy-2-methylphenyl)(2,3,4-trimethoxy-6-methylphenyl)methanone] | +++ | ++ | 0 | 0 |  | 
COc1cc(C)c(C(=O)c2c(OC)ccc(Br)c2C)c(OCc2cccc(C)c2)c1OC [Compound S, (3-bromo-6-methoxy-2-methylphenyl)[3,4-dimethoxy-6-methyl-2-[(3-methylphenyl)methoxy]phenyl]methanone] | +++ |  |  |  |  | 
COc1cc(C)c(C(=O)c2c(Cl)cccc2Cl)c(OCc2ccc(F)cc2)c1OC [D, (2,6-dichlorophenyl)[2-[(4-fluorophenyl)methoxy]-3,4-dimethoxy-6-methylphenyl]methanone] | +++ |  |  |  |  | 
CCCOc1c(OC)cc(C)c(C(=O)c2c(OC)ccc(Cl)c2C)c1O [DD, (3-chloro-6-methoxy-2-methylphenyl)(2-hydroxy-4-methoxy-6-methyl-3-propoxyphenyl)methanone] | +++ | 0 | 0 | 0 |  | 
COc1cc(C)c(C(=O)c2c(OC)ccc(Br)c2C)c(OCc2ccc(Cl)cc2)c1OC [EE, (3-bromo-6-methoxy-2-methylphenyl)[3,4-dimethoxy-6-methyl-2-[(4-chlorophenyl)methoxy]phenyl]methanone] | +++ | 0 | 0 | 0 |  | 
COc1cc(C)c(C(=O)c2c(C)ccc3ccccc23)c(OC)c1OC [F, (2,3,4-trimethoxy-6-methylphenyl)(2-methyl-1-naphthalenyl)methanone] | +++ | ++ | 0 | 0 |  | 
COc1cc(C)c(C(=O)c2c(C)cccc2OC)c(OC)c1OC [G, (2-methoxy-6-methylphenyl)(2,3,4-trimethoxy-6-methylphenyl)methanone] | +++ | 0 | 0 | 0 |  | 
COc1cc(C)c(C(=O)c2c(C)cccc2C)c(OCc2c(F)cc(F)cc2F)c1OC [H, [3,4-dimethoxy-6-methyl-2-[(2,4,6-trifluorophenyl)methoxy]phenyl](2,6-dimethylphenyl)methanone] | +++ | 0 | 0 | 0 |  | 
COc1cc(C)c(C(=O)c2c(Cl)cccc2OC)c(OCc2cccc(C)c2)c1OC [I, (2-chloro-6-methoxyphenyl)[3,4-dimethoxy-6-methyl-2-[(3-methylphenyl)methoxy]phenyl]methanone] | +++ | + | ++ | 0 |  | 
COc1cc(C)c(C(=O)c2c(OC)ccc(Br)c2Cl)c(OC)c1OC [J, (3-bromo-2-chloro-6-methoxyphenyl)(2,3,4-trimethoxy-6-methylphenyl)methanone] | +++ | 0 | + | 0 |  | 
COc1cc(C(=O)c2c(Cl)cccc2Cl)c(C)cc1OC1CCCC1 [K, [4-(cyclopentyloxy)-5-methoxy-2-methylphenyl](2,6-dichlorophenyl)methanone] | 0 | 0 |  | +++ |  | 
COc1cc(C)c(C(=O)c2c(C)cccc2C)c(OC)c1OC [L, (2,6-dimethylphenyl)(2,3,4-trimethoxy-6-methylphenyl)methanone] | +++ | 0 | 0 | 0 |  | 
COc1cc(C)c(C(=O)c2c(OC)ccc(Br)c2C)c(OC)c1OC [M, (3-bromo-6-methoxy-2-methylphenyl)(2,3,4-trimethoxy-6-methylphenyl)methanone] | +++ | 0 |  |  | +++ | 0
COc1cc(C)c(C(=O)c2c(C)cccc2C)c(OCc2ccccc2)c1OC [O, [3,4-dimethoxy-6-methyl-2-(phenylmethoxy)phenyl](2,6-dimethylphenyl)methanone] | +++ | ++ | 0 | 0 |  | 
CCCCCOc1c(OC)cc(C)c(C(=O)c2c(OC)ccc(C)c2Cl)c1OC [P, (2-chloro-6-methoxy-3-methylphenyl)[2,4-dimethoxy-6-methyl-3-(pentyloxy)phenyl]methanone] | +++ | ++ | 0 | 0 |  | 
COc1cc(C)c(C(=O)c2c(C)ccc(Cl)c2C)c(OC)c1OC [Q, (3-chloro-2,6-dimethylphenyl)(2,3,4-trimethoxy-6-methylphenyl)methanone] | +++ | ++ | + | 0 |  | 
COc1cc(C)c(C(=O)c2c(OC)ccc(Cl)c2C)c(OC)c1OC [R, (3-chloro-6-methoxy-2-methylphenyl)(2,3,4-trimethoxy-6-methylphenyl)methanone] | +++ | ++ | 0 | 0 |  | 
COc1cc(C)c(C(=O)c2c(OC)ccc(C(F)(F)F)c2C)c(OC)c1OC [T, [6-methoxy-2-methyl-3-(trifluoromethyl)phenyl](2,3,4-trimethoxy-6-methylphenyl)methanone] | +++ | 0 | 0 | 0 |  | 
CCCC(C)Oc1cc(C)c(C(=O)c2c(Cl)cccc2Cl)cc1OC (stereo not shown) [U, (2,6-dichlorophenyl)[5-methoxy-2-methyl-4-(1-methylbutoxy)phenyl]methanone] | ++ | ++ | 0 | +++ |  | 
COc1cc(C)c(C(=O)c2c(Cl)cccc2Cl)c(OCc2ccccc2F)c1OC [V, (2,6-dichlorophenyl)[2-[(2-fluorophenyl)methoxy]-3,4-dimethoxy-6-methylphenyl]methanone] | +++ | ++ | 0 | 0 |  | 
CCC(=O)Oc1c(OC)c(OC)cc(C)c1C(=O)c1c(Cl)cccc1Cl [W, (2,6-dichlorophenyl)[3,4-dimethoxy-6-methyl-2-(1-oxopropoxy)phenyl]methanone] | +++ | +++ | +++ | 0 |  | 
